pIC50: −log10 of the molar value. Where two headings read alike, the source gives them in different places.
Experiments:
[1] = system: Her2 low expression human MCF-7 breast tumor cells; experiment: Cytotoxicity assay (growth inhibition, CellTiter-Glo) on MCF-7
Method: (§1) Her2-positive human BT474 breast tumor cells (BT474 for short), Her2 low expression human MCF-7 breast tumor cells (MCF-7 for short), and human breast tumor cell strain MCF7-Her2 with stable-transfected Her2 outside MCF-7 (MCF-7-Her2 for short) were used (they were prepared by the methods disclosed in the literatures for preparing recombinant cells: Teemu T. Junttila, et al., Breast. Cancer Res. Treat., 2011, 128, 347 and Jeffrey J. Wallin et al., Clin. Cancer Res., 2012, 18, 3901, the contents of which are incorporated herein by reference in their entireties). The growth inhibition of tumor cells by T-CE-040 and T-CE-063 antibody drug conjugates were evaluated. BT474, MCF7-Her2 and MCF-7 were digested with 0.25% (v/v) trypsin and the cells were stripped and then suspended in 100 μL complete medium. 2,000 cells were inoculated in a 96-well plate and cultured, grew adherently overnight at 37° C., then 100 μL T-CE-040 and T-CE-063 antibody drug conjugates with different concentration gradients and the complete medium were added. After 120 hours, relative cell proliferation analysis was performed by adding 50 μL CellTiter-Glo® […] Cell Activation Reagent (CellTiter-GloB Luminescent, Promega).

[2] = system: human breast tumor cell strain MCF7-Her2 with stable-transfected Her2; experiment: Cytotoxicity assay (growth inhibition, CellTiter-Glo) on MCF7-Her2
Method: as §1

[3] = system: Her2-positive human BT474 breast tumor cells; experiment: Cytotoxicity assay (growth inhibition, CellTiter-Glo) on BT474
Method: as §1

[4] = Homo sapiens, MCF7, 120 h, read-out: Cytotoxicity assay IC50 MCF7, MCF-7 cells, 120 hours, CellTiter-Glo
[5] = Homo sapiens, 120 h, read-out: Cytotoxicity assay IC50 MCF-Her2, MCF7-Her2 cells, 120 hours, CellTiter-Glo
[6] = Homo sapiens, BT-474, 120 h, read-out: Cytotoxicity assay IC50 BT474, BT474 cells, 120 hours, CellTiter-Glo
[7] = read-out: Cytotoxicity assay IC50 MCF7, MCF-7 cells, 120 hours, CellTiter-Glo
[8] = read-out: Cytotoxicity assay IC50 MCF-Her2, MCF7-Her2 cells, 120 hours, CellTiter-Glo
[9] = read-out: Cytotoxicity assay IC50 BT474, BT474 cells, 120 hours, CellTiter-Glo

| SMILES | pIC50 [1, 4] | pIC50 [2, 5] | pIC50 [3, 6] | pIC50 [1, 7] | pIC50 [2, 8] | pIC50 [3, 9] |
| --- | --- | --- | --- | --- | --- | --- |
| COc1cc2cc(c1Cl)N(C)C(=O)C[C@H](OC(=O)[C@H](C)OCCCSSC)[C@]1(C)O[C@H]1[C@H](C)[C@@H]1C[C@@](O)(NC(=O)O1)[C@H](OC)/C=C/C=C(\C)C2 [CE-027] | 7.41 | 7.64 | 7.82 | – | – | – |
| COc1cc2cc(c1Cl)N(C)C(=O)C[C@H](OC(=O)[C@H](C)OCCOCCOCCOCCOCCOCCNC(=O)CBr)[C@]1(C)O[C@H]1[C@H](C)C1C[C@@](O)(NC(=O)O1)[C@H](OC)/C=C/C=C(\C)C2 [CE-052a] | 7.74 | 8.01 | 7.48 | – | – | – |
| COc1cc2cc(c1Cl)N(C)C(=O)C[C@H](OC(=O)[C@H](C)OCCCSC1CC(=O)N(C[C@H]3CC[C@H](C(=O)ON4C(=O)CCC4=O)CC3)C1=O)[C@]1(C)O[C@H]1[C@H](C)C1C[C@@](O)(NC(=O)O1)[C@H](OC)/C=C/C=C(\C)C2 (stereo partly drawn) [CE-051] | – | – | – | 6.92 | 7.29 | 6.95 |
| COc1cc2cc(c1Cl)N(C)C(=O)C[C@H](OC(=O)C(COCCCSSC)OC)[C@]1(C)O[C@H]1[C@H](C)C1C[C@@](O)(NC(=O)O1)[C@H](OC)/C=C/C=C(\C)C2 (single isomer, unassigned) [CE-055-1] | – | – | – | 8.22 | 8.52 | 8.10 |
| COc1cc2cc(c1Cl)N(C)C(=O)C[C@H](OC(=O)[C@H](C)N(C)C(CCSSC)C(F)(F)F)[C@]1(C)O[C@H]1[C@H](C)[C@@H]1C[C@@](O)(NC(=O)O1)[C@H](OC)/C=C/C=C(\C)C2 (stereo partly drawn) [CE-011] | 8.62 | 8.82 | 8.92 | – | – | – |
| COc1cc2cc(c1Cl)N(C)C(=O)C[C@H](OC(=O)C(COCCSSC)OC)[C@]1(C)O[C@H]1[C@H](C)C1C[C@@](O)(NC(=O)O1)[C@H](OC)/C=C/C=C(\C)C2 (stereo partly drawn) [CE-056] | 7.77 | 6.66 | 7.41 | – | – | – |
| COc1cc2cc(c1Cl)N(C)C(=O)C[C@H](OC(=O)C(COCCCSSC)OC)[C@]1(C)O[C@H]1[C@H](C)C1C[C@@](O)(NC(=O)O1)[C@H](OC)/C=C/C=C(\C)C2 (single isomer, unassigned) [CE-054-1] | 8.15 | 8.47 | 8.00 | – | – | – |
| COCC(CCC(=O)N(C)[C@@H](C)C(=O)OC1CC(=O)N(C)c2cc(cc(OC)c2Cl)C/C(C)=C/C=C/[C@@H](OC)[C@@]2(O)C[C@H](OC(=O)N2)[C@@H](C)[C@@H]2O[C@@]12C)(COC)SSC (stereo partly drawn) [CE-017] | 8.05 | 8.51 | 7.85 | – | – | – |
| COc1cc2cc(c1Cl)N(C)C(=O)C[C@H](OC(=O)[C@H]1CC[C@H](CSC3CC(=O)N(C[C@H]4CC[C@H](C(=O)ON5C(=O)CCC5=O)CC4)C3=O)CC1)[C@]1(C)O[C@H]1[C@H](C)C1C[C@@](O)(NC(=O)O1)[C@H](OC)/C=C/C=C(\C)C2 (stereo partly drawn) [CE-036] | 7.88 | 8.16 | 8.09 | – | – | – |
| COCC(CCC(=O)N(C)[C@H](C)C(=O)OC1CC(=O)N(C)c2cc(cc(OC)c2Cl)C/C(C)=C/C=C/[C@@H](OC)[C@@]2(O)C[C@H](OC(=O)N2)[C@@H](C)[C@@H]2O[C@@]12C)(COC)SSC (stereo partly drawn) [CE-016] | 7.17 | 7.37 | 7.63 | – | – | – |
| COc1cc2cc(c1Cl)N(C)C(=O)C[C@H](OC(=O)C1CCC(CSSC)OC1)[C@]1(C)O[C@H]1[C@H](C)C1C[C@@](O)(NC(=O)O1)[C@H](OC)/C=C/C=C(\C)C2 (stereo partly drawn) [CE-053-1] | 7.66 | 7.89 | 7.66 | – | – | – |
| COc1cc2cc(c1Cl)N(C)C(=O)CC(OC(=O)[C@H](C)N(C)C(=O)CCC(SSC)C(C)C)[C@]1(C)O[C@H]1[C@H](C)[C@@H]1C[C@@](O)(NC(=O)O1)[C@H](OC)/C=C/C=C(\C)C2 (stereo partly drawn) [CE-022] | 8.00 | 8.22 | 7.89 | – | – | – |
| COc1cc2cc(c1Cl)N(C)C(=O)C[C@H](OC(=O)[C@H](C)N(C)[C@H](CCSSC)C(F)(F)F)[C@]1(C)O[C@H]1[C@H](C)[C@@H]1C[C@@](O)(NC(=O)O1)[C@H](OC)/C=C/C=C(\C)C2 (single isomer, unassigned) [CE-030] | 8.21 | 8.49 | 8.62 | – | – | – |
| COc1cc2cc(c1Cl)N(C)C(=O)C[C@H](OC(=O)C(C)(C)OCCCSC1CC(=O)N(C[C@H]3CC[C@H](C(=O)ON4C(=O)CCC4=O)CC3)C1=O)[C@]1(C)O[C@H]1[C@H](C)C1C[C@@](O)(NC(=O)O1)[C@H](OC)/C=C/C=C(\C)C2 (stereo partly drawn) [CE-049] | 6.68 | 6.86 | 6.86 | – | – | – |

Source: US10449258B2, “Antibody drug conjugate, intermediate, preparation method, pharmaceutical composition and uses thereof” (XDCEXPLORER (SHANGHAI) CO., LTD., priority 2015, dated 2019)
